Reference: patent US8426463B2, “[((1R,2S,5R)-2-isopropyl-5-methyl-cyclohexanecarbonyl)-amino]-acetic acid isopropyl ester and related compounds and their use in therapy” (priority 2011, dated 2013)

Key:
[1] = test system: philtrum skin (keratinized stratified epithelium); assay: Philtrum assay: duration of cooling on keratinized stratified epithelium; format: in vivo, human; settings: applied to the philtrum skin at 5 mg/mL in Aquaphor ointment
Text: Bioassay on Keratinized Stratified Epithelium: Philtrum Assay
The philtrum is the midline groove above the border of the upper lip. The site of drug testing was the skin above the upper lip (above the vermilion border of the lips), on the philtrum, lateral to the philtrum until the nasolabial folds, and sometimes on the lower nostrils (subnasale). This part of the face is known to be densely innervated with cool/cold receptors, second only to the surfaces of the eyeball and anogenitalia. It is also known from the scientific literature that the area around the lips has a high density of “cold spots” (see, e.g., Dhaka et al., “Visualizing cold spots: TRPM8-expressing sensory neurons and their projections”, J. Neuroscience, Vol. 28, pp. 566-575, 2008).
To test for anti-nociceptive activity, the test substance is first dissolved (5 mg/mL) in an ointment (Aquaphor®, which is 41% petrolatum, and the rest mineral oil, ceresin and lanolin alcohol) and singly applied (40 to 70 mg) onto the philtrum skin surface using a plastic stick.
At this locus, cool and cold sensations in the skin may be experienced and rated for time of onset and intensity. The intensity of the subjective skin sensation is rated as 0, 1, 2 or 3 with: 0 as no change; 1 as slight coolness, or cold; 2 as clear-cut signal of coolness or cold; and 3 as robust cooling or cold. The intervals for recording are 5 to 10 minutes, until two successive zeroes are obtained. The onset of drug action is taken as the time to reach 2 units of coolness intensity, and offset of drug action is the time when coolness intensity drops below 2, after previously surpassing 2 units. The duration of cooling action is defined as the offset time minus the onset time.

[2] = test system: oropharyngeal surface (non-keratinized stratified epithelium); assay: Oropharyngeal surface bioassay: ODT followed by chili pepper sauce challenge; format: in vivo, human; design: key to Non-Keratinized Stratified Epithelia (NKSE) Oropharyngeal Surface, attenuation of chili pepper sauce irritation: If there was no attenuation of the challenge stimuli, the score was (0); if there was partial inhibition, the score was (+); if there was complete attenuation of the irritant signal, the score was (++); settings: for sensation on the oropharyngeal surface / effect on the response to the chili pepper sauce: ODT; for Non-Keratinized Stratified Epithelia (NKSE) Oropharyngeal Surface, attenuation of chili pepper sauce irritation: ODT containing 2.5 to 3 mg of active ingredient, chili pepper sauce 45 minutes later; for effect on the response to the chili pepper sauce: same test conditions
Text: Bioassay on Non-Keratinized Stratified Epithelium: Oropharyngeal Surface
A number of irritants have been evaluated for evoking the cough sensation as a measure of pharygeal sensitivity (see, e.g., Morice et al., 2001, “Cough Challenge in the Assessment of Cough Reflex”, Brit. J. Clin. Pharmacol., Vol. 52, pp. 365-375). Usually, citric acid or capsaicin is delivered via the inhalation route to volunteers and the number of coughs counted. […] The chili pepper sauce mixes with the saliva and the saliva is then deposited on the posterior oropharynx. The chili pepper sauce used was Yank Sing® Chili Pepper Sauce (YS Gourmet Productions, Inc., PO Box 26189, San Francisco, Calif. 94126) and is a well-known condiment for use with dim sum (Chinese tea lunch). The sensations associated with the chili pepper sauce are located in the posterior wall of the mouth and are clearly recognized by the test subject and associated with a desire to clear the throat.
The ODT was formulated by taking an ingredient, dissolving it in absolute ethanol, and then adding 10% by weight of maltitol, and 90% by weight of mannitol, and then an equal volume of distilled water. The mixture was the stirred with a glass rod, and dispensed onto a piece of wax paper with a disposable plastic pipette. The individual dried tablets weighed on average 150 mg each and when on the dorsal surface of the tongue, dissolved completely in saliva and coated the oropharyngeal surface. On average, the amount of the test substance was 2.5 to 3 mg per tablet.
To test for anti-nociceptive activity, the ODT containing the test compound was first administered onto the dorsal surface of the tongue; 45 to 50 minutes later, the chili-pepper sauce challenge is administered. At this time, the coolness sensations from the test compound have dissipated and the test is to determine if an anti-nociceptive effect remains. Results were reported as follow: If there was no attenuation of the challenge stimuli, the score was (0), if there was partial inhibition, the score was (+), and if there was complete attenuation of the irritant signal, the score was (++). In the presence of an ODT containing an active ingredient that results in a (++) score, the irritative signals were completely absent, yet the salty taste used in the soy sauce of the condiment could be readily identified and tasted.
In one formulation (used in the biological evaluation studies described herein), orally disintegrating tablets (ODTs) were prepared using an 80:20 by weight mixture of mannitol-maltitol (Pearlitol™ and Sweetpearl™, Roquette Freres, France). This carrier has the advantage of completely masking bitter tastes that might be present in some of the test compounds. The test compound was first mixed with the mannitol-maltitol using a mortar and pestle, and then suspended in an equal volume of 10:90 v/v ethanol-distilled water. A disposable pipette was then used to aliquot the liquid mixture onto a sheet of wax paper and dried at room temperature. The dried tablets were then weighed and sorted. It was found by experiment that an 80 mg tablet containing 2 to 3 mg of test compound dissolved within 15 seconds when placed on the dorsal surface of the tongue and provided a good test dose.

TA1535 strain = settings: MSDS Number 2984; cited from earlier work
[3] = test system: ocular surface (non-keratinized stratified epithelium); assay: Ocular surface bioassay: duration of cooling after towelette wipe on closed eyelids; format: in vivo, human; settings: for Non-Keratinized Stratified Epithelia (NKSE) Ocular Surface (min), duration of cooling: applied to the closed eyelids using a towellette at 1 mg/mL in 5%-95% v/v ethanol-distilled water; for rank order of duration of action of ocular wipes: six subjects, randomized double-blind study, three trials per wipe
Protocol: Bioassay on Non-Keratinized Stratified Epithelium: Ocular Surface
For testing on the ocular surface, a towelette containing the test compound was used as the delivery unit. The test compound was dissolved first in absolute ethanol and then distilled water was added to form a standard 1 mg/mL solution in a 3 to 5% by weight ethanol-water solution. Three mL of the test solution was then added to a 0.4 g cotton rectangle (50 mm×60 mm) (CS-being, Daisan Cotton, Japan) and individually sealed with a vacuum apparatus (Foodsaver®, Jarden Corp.). Samples were stored in a freezer or refrigerator and thawed to room temperature before use. Wiping with the cotton pad delivers 40 to 45 μL of liquid composition to the closed eyelids (˜20 to 22 μL per eye surface). Thus, if the concentration of the test compound was 1 mg/mL, the dose delivered to both eyes is a total of ˜40 to 42 μg, or ˜20 μg per eye. The presence or absence of cooling sensations felt on the ocular surface was noted as being present or absent at 5 to 10 minute intervals until no coolness was noticeable in two successive test intervals. Only the duration of cooling on the ocular surface was recorded, without an attempt to quantify the intensity of the sensation.

[4] = test system: dry, scratchy throat with cough; assay: Study 4: chewing gum and ODT in a subject with scratchy throat and cough; format: in vivo, human
Text: A person's child moved away from their neighborhood to go to college and they became responsible for taking care of their two cats. Initially everything was all right, but then they became sensitized to the litter box dust generated when they were cleaning after the cats. They developed a dry, scratchy throat with cough, and this was severely aggravated by their seasonal allergy to grass pollen, so that they were constantly clearing their throat. […] After about two weeks of coughing and discomfort, they agreed to try Gly-O-iPr, first spread as 3 mg per wafer of Wrigley spearmint chewing gum, and then later formulated in an orally disintegrating tablet at 3 mg per unit dose. The medicated chewing gum and the ODT both provided relief within five minutes after administration. The sense of discomfort in the throat was attenuated and the effect lasted for about four hours and the dose could be repeated with the same beneficial effect. This individual preferred the ODT method of delivery as they considered this more efficient than chewing gum. After using the ODT containing Gly-O-iPr for ten days on an “as-needed basis” […] cough and scratchy throat disappeared and they are now well.

allergic conjunctivitis = assay: Study 3: eye wipes in a subject with allergic conjunctivitis; format: in vivo, human
Text: A laboratory scientist suffered from seasonal allergic conjunctivitis. This condition was severely aggravated when […] started doing experiments with laboratory animals (rats and mice) and […] became sensitized to the associated allergens. The conjunctivitis was not relieved by oral or topical eye drops containing antihistamines and the subject was reluctant to consider the use of anti-inflammatory steroid ointments. Upon examination, their eyes were blood-shot and watery and they kept rubbing their eyelids with their fingers even though they knew this action may further aggravate the itch and discomfort. They volunteered to try eye wipes containing 1.0 mg/mL of Gly-O-iPr. The relief of itch and discomfort was obtained within 5 minutes and lasted for at least four hours.

[5] = test system: Salmonella typhimurium tester strain TA1535; assay: Ames test in TA1535 with and without S9-mix (Notox)
[6] = test system: pharyngeal and esophageal receptors; assay: Cooling sensations in the chest after Gly-O-iPr with or without icilin; design: species or system human; settings: in vivo
Text: The cooling sensations in the chest that result from the Gly-O-iPr/icilin combination may provide symptomatic relief of discomfort in the airways (larynx, trachea, bronchi) in conditions such as asthma and COPD.

cough = assay: Study 5: ODT in a smoker with chili pepper induced coughing fit; format: in vivo, human; settings: two ODT tablets (2.5 mg each); one subject
Protocol: A venture capitalist lived a stress-filled life and smoked two packs of cigarettes per day. […] They tried the ODT containing 2.5 mg of Gly-O-iPr and said that it felt great, but they were afraid that if they used it, they would smoke more. Later that evening, they went to a banquet of Northern Chinese cuisine and they started coughing when they ate a piece of fish that was heavily spiced with chili peppers. Everyone at the dinner table was alarmed by their coughing fit which was quite intense and made their face turn bright red.

[7] = test system: dorsal surface of the tongue; settings: 6 subjects; filter paper on dorsal surface of tongue, 30 seconds; cited from earlier work
[8] = 3 mg per chewing gum wafer or 3 mg ODT, one subject

| Compound | Keratinized Stratified Epithelia Philtrum Skin (min), duration of cooling [1] [min] | sensation on the oropharyngeal surface [2] | Non-Keratinized Stratified Epithelia (NKSE) Oropharyngeal Surface, attenuation of chili pepper sauce irritation [2] | effect on the response to the chili pepper sauce [2] | Non-Keratinized Stratified Epithelia (NKSE) Ocular Surface (min), duration of cooling [3] [min] | rank order of duration of action of ocular wipes [3] | further results |
| --- | --- | --- | --- | --- | --- | --- | --- |
| CCOC(=O)CNC(=O)[C@@H]1C[C@H](C)CC[C@H]1C(C)C [Gly-O-Et, [((1R,2S,5R)-2-isopropyl-5-methyl-cyclohexanecarbonyl)-amino]-acetic acid ethyl ester] | 24 | refreshing cooling sensation | 0 | not effective | 15 | Gly-O-iPr>>Gly-O-nPr>Gly-O-Et | mutagenicity, Ames test (TA1535 strain): weakly mutagenic; increase in duration of cooling on the ocular surface ([3]; concentration increased from 1 mg/mL to 2 mg/mL): 15 min; increase in duration of cooling on the ocular surface ([3]; concentration increased from 1 mg/mL to 5 mg/mL): 22 min |
| CCCOC(=O)CNC(=O)[C@@H]1C[C@H](C)CC[C@H]1C(C)C [Gly-O-nPr, [((1R,2S,5R)-2-isopropyl-5-methyl-cyclohexanecarbonyl)-amino]-acetic acid n-propyl ester] | 42 |  | 0 | not effective | 54 | Gly-O-iPr>>Gly-O-nPr>Gly-O-Et |  |
| COC(=O)CNC(=O)[C@@H]1C[C@H](C)CC[C@H]1C(C)C [Gly-O-Me, [((1R,2S,5R)-2-isopropyl-5-methyl-cyclohexanecarbonyl)-amino]-acetic acid methyl ester] | 10 |  | 0 |  | 5 |  |  |
| CCCCOC(=O)CNC(=O)[C@@H]1C[C@H](C)CC[C@H]1C(C)C [Gly-O-nBu, [((1R,2S,5R)-2-isopropyl-5-methyl-cyclohexanecarbonyl)-amino]-acetic acid n-butyl ester] | 38 |  | 0 |  | 35 |  |  |
| CC(C)OC(=O)CNC(=O)[C@@H]1C[C@H](C)CC[C@H]1C(C)C [Gly-O-iPr, [((1R,2S,5R)-2-isopropyl-5-methyl-cyclohexanecarbonyl)-amino]-acetic acid isopropyl ester] | 27 | refreshing cooling sensation | ++ | blocked the response to the chili pepper sauce | 300 | Gly-O-iPr>>Gly-O-nPr>Gly-O-Et | duration of attenuated throat discomfort [4, 8]: about four; time to relief after administration [4, 8]: five; cough and scratchy throat ([4]; ODT as needed for ten days): disappeared; time to relief of itch and discomfort (allergic conjunctivitis; eye wipes containing 1.0 mg/mL, one subject): ≤ 5 min; over-all itchiness and redness (allergic conjunctivitis; wipes as needed for three days): reduced significantly; mutagenic activity, conclusion ([5]; TA1535, 3 to 5000 μg/plate, absence and presence of S9-mix): not mutagenic; bacterial background lawn ([5]; any of the concentrations tested (3 to 5000 μg/plate)): not reduced; precipitation on the plates ([5]; top dose of 5000 μg/plate, dissolved in DMSO): did not precipitate; cooling sensations in the chest [6]: less effective; effect on coughing fit (cough): the cough stopped within a few minutes; duration of cooling effect on the ocular surface, on average ([3]; 1 mg/mL): 5 h; duration of cooling on the ocular surface ([3]; test concentration increased to 1.5 mg/mL): about 6.5 hours |
| CC(C)[C@@H]1CC[C@@H](C)C[C@H]1O [(−)-menthol, (1R,2S,5R)-2-isopropyl-5-methyl-cyclohexanol] |  |  |  |  |  |  | average Threshold for cooling on the tongue [7]: 0.25 µg |
